Reference: US12448388B2, “PRMT5 inhibitors and uses thereof” (Gilead Sciences, Inc., priority 2023, dated 2025)

Tests used:
[1] = Cell viability assay (CellTiter-Glo, 7 days), HCT116 WT; format: cell-based; settings: human, HCT116 WT cells, 7 days of treatment, CTG
In short: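 Each PRMT5 inhibitor was tested as a dose response alongside tool compounds on the same plate. Incubation ran 7 days at 37 °C under 5% CO2, after which CellTiter-Glo luminescence was recorded and CC50 calculated.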

[2] = MDR1/BCRP assay: permeability in cPgp-KO-MDCK-WT cells; format: in vitro ADME; settings: dog, pH 7.4
In short: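 Compounds at 1 μM were dosed apically or basolaterally on 5-day confluent cPgp-KO-MDCK monolayers, HBSS/HEPES/glucose pH 7.4 donor and receiver with 1% BSA, duplicate wells. Receiver samples at 2 h were analysed by LC-MS/MS to give A→B and B→A Papp plus % recovery; TEER confirmed integrity.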

[3] = Hepatocyte stability assay, human; format: in vitro ADME; settings: human hepatocytes, 1 μM
Procedure: BioreclamationIVT (Baltimore, MD) provided the cryopreserved hepatocytes, hepatocyte thawing (HT) medium, and Krebs-Henseleit buffer (KHB) medium. The stock solution concentration was 1 M in DMSO and was then diluted further in acetonitrile/water (1:1 v/v). All other chemicals were purchased from Sigma-Aldrich (St. Louis, MO) or Thermo Fisher Scientific (Waltham, MA).
The quench solution used to stop reactions in the hepatocyte incubations was comprised of 100% (v/v) acetonitrile. Internal Standard/Quench (IS/Q) solution used to stop reactions with the positive control also contained 200 nM Labetalol.
Metabolic Stability in Cryopreserved Hepatocytes: Test compounds, or the positive control metabolic substrate, was incubated in suspensions of cryopreserved hepatocytes at a final concentration of 1 μM. Vials containing cryopreserved hepatocytes were removed from liquid nitrogen and immediately immersed in a 37° C. water bath. The vials were swirled gently until the contents had thawed. They were then immediately emptied into 48 mL of pre-warmed thawing medium in a 50 mL conical tube. Cells remaining in the vial were re-suspended with 1.0 mL of pre-warmed thawing medium and added to the conical tube. The tube was capped and then gently inverted several times to re-suspend the hepatocytes. The cell suspension was centrifuged at 500×g for 10 minutes at room temperature and the supernatant discarded. The cell pellet was loosened by gently swirling the centrifuge tube. Non-supplemented KHB medium was added to obtain the appropriate target cell density. The viabilities of all cell preparations were ≥85%, assessed by Trypan blue dye exclusion.
For incubations, aliquots of hepatocyte suspension (250 μL containing a cell concentration of 2×10^6 cells/mL) were added to 250 μL of 2 μM substrate (test compound or positive control) in supplemented KHB in duplicate wells in a 24-well plate. Final concentration in the incubations were 1×10^6 cells/mL and 1 μM substrate. A cell-free control incubation (KHB only) was also included. The incubations were carried out with gentle shaking in a 37° C. incubator under a humid atmosphere of 95% air/5% CO2 (v/v). Aliquots (100 μL) were removed after 0, 1, 3, and 6 hours and added to 200 μL quenching solution. The samples were then placed on a shaker for 10 min followed by centrifugation at 3000×g for 20 min. The supernatant was transferred to a new plate and diluted with 100 μL of water to reduce the organic content and then placed on a shaker for 10 mins. Samples were injected and analyzed with methods described below.
Liquid Chromatography: Quantification of positive control and test compound was performed by analyte/internal standard peak area ratios (PAR) measured on a Thermo Scientific™ Q Exactive™ Hybrid Quadrupole-Orbitrap Mass Spectrometer MS/MS with an electrospray interface operating in positive ion mode. The mass spectrometer was coupled to a Dionex Ultimate® 3000 HPLC system. Samples (10 μL aliquots) were injected with a Leap Technologies HTC PAL autosampler. For positive control, the column used was a Thermo Scientific™ Hypersil GOLD™ HPLC column ([…], 50×2.1 mm). Mobile phase A consisted of 95% (v/v) water, 5% (v/v) acetonitrile, and contained 0.1% (v/v) formic acid (FA). Mobile phase B consisted of 95% (v/v) acetonitrile, 5% (v/v) water, and contained 0.1% (v/v) FA. Elution was achieved, at a flow rate of 0.5 mL/min, by a series of linear gradients: initial condition was 5% B at 0 min, isocratic for 20 seconds; then linear gradient to 95% B over 90 seconds, followed by isocratic for 60 seconds at 95% B, and re-equilibrated to initial conditions over 70 seconds.
Metabolic stabilities of positive control and test compound were determined by measuring the rates of disappearance of the parent with time by determining the % of parent remaining at time t (Ct) {Obach 1997}.
Data (% of parent remaining) were plotted on a semi-log scale and fitted using an exponential fit: […]

Row | SMILES | CC50 at 7 days [1] [µM] | Papp A→B at 2 h, 1 µM [2] [nm/s] | Human Predicted Hepatocyte CL [3] [L/h/kg]
1 | C[C@H]1CN(C(=O)c2cc3c(cc2F)nc(N)c2cncn23)[C@H]2c3cc(F)c(C(F)F)cc3C[C@H]2O1 (single isomer, unassigned) [Ff-173] | 2.25 | 143 | 0.18
2 | Nc1nc2cnc(C(=O)N3CC4(CC4)C[C@@H]4Oc5cc(C(F)(F)F)ccc5[C@@H]43)cc2n2cncc12 [Ff-648, (4-aminoimidazo[1,5-a]pyrido[3,4-e]pyrazin-8-yl)((4aS,9bS)-7-(trifluoromethyl)-4a,9b-dihydro-2H-spiro[benzofuro[3,2-b]pyridine-3,1′-cyclopropan]-1(4H)-yl)methanone] | 0.65 | 109 | 0.34
3 | Nc1nc2cnc(C(=O)N3CC[C@H]4C[C@@H]3c3c(F)cc(C(F)(F)F)cc3O4)cc2n2cncc12 (single isomer, unassigned) [Ff-694] | 0.723 | 197 | 0.21
4 | Nc1nc2cnc(C(=O)N3CCC[C@@H]4Oc5cc(C(F)(F)F)ccc5[C@@H]43)cc2n2cncc12 [Ff-110, (4-aminoimidazo[1,5-a]pyrido[3,4-e]pyrazin-8-yl)((4aS,9bS)-7-(trifluoromethyl)-3,4,4a,9b-tetrahydrobenzofuro[3,2-b]pyridin-1(2H)-yl)methanone] | 0.516 | 121 | 0.22
5 | Nc1nc2cnc(C(=O)N3CC[C@H]4C[C@@H]3c3ccc(C(F)(F)F)c(F)c3O4)cc2n2cncc12 [Ff-684, (4-aminoimidazo[1,5-a]pyrido[3,4-e]pyrazin-8-yl)((2S,6R)-10-fluoro-9-(trifluoromethyl)-3,4-dihydro-2H-2,6-methanobenzo[b][1,5]oxazocin-5(6H)-yl)methanone] | 1.31 | 107 | 0.16
6 | Nc1nc2cnc(C(=O)N3CCC[C@@H]4Oc5cc(C(F)(F)F)cc(F)c5[C@@H]43)cc2n2cncc12 (single isomer, unassigned) [Fg-53] | 0.503 | 166 | 0.17
7 | C[C@H]1CN(C(=O)c2cc3c(cc2F)nc(N)c2cncn23)[C@H]2c3ccc(C(F)(F)F)cc3C[C@H]2O1 (single isomer, unassigned) [Ff-81] | 1.35 | 105 | 0.18
8 | Nc1nc2cnc(C(=O)N3CCC[C@@H]4Oc5cc(OC(F)(F)F)cc(F)c5[C@@H]43)cc2n2cncc12 (single isomer, unassigned) [Fg-55] | 0.799 | 95 | 0.24
9 | Nc1nc2cc(F)c(C(=O)N3CCC[C@@H]4Oc5cc(C(F)(F)F)ccc5[C@@H]43)cc2n2cncc12 [Ff-104, (4-amino-7-fluoroimidazo[1,5-a]quinoxalin-8-yl)((4aS,9bS)-7-(trifluoromethyl)-3,4,4a,9b-tetrahydrobenzofuro[3,2-b]pyridin-1(2H)-yl)methanone] | 0.47 | – | 0.5
10 | Cc1ncc2c(N)nc3cnc(C(=O)N4CCC[C@@H]5Oc6cc(OC(F)(F)F)ccc6[C@@H]54)cc3n12 [Ff-340, (4-amino-1-methylimidazo[1,5-a]pyrido[3,4-e]pyrazin-8-yl)((4aS,9bS)-7-(trifluoromethoxy)-3,4,4a,9b-tetrahydrobenzofuro[3,2-b]pyridin-1(2H)-yl)methanone] | 2.46 | 163 | 0.3
11 | [2H]C1([2H])CC[C@@H]2Oc3cc(C(F)(F)F)ccc3[C@@H]2N1C(=O)c1cc2c(cn1)nc(N)c1cncn12 [Fg-60, (4-aminoimidazo[1,5-a]pyrido[3,4-e]pyrazin-8-yl)((4aS,9bS)-7-(trifluoromethyl)-3,4,4a,9b-tetrahydrobenzofuro[3,2-b]pyridin-1(2H)-yl-2,2-d2)methanone] | 0.683 | 70 | 0.21
12 | Nc1nc2cnc(C(=O)N3CC[C@H]4C[C@@H]3c3ccc(C(F)(F)F)cc3O4)cc2n2cncc12 [Ff-367, (4-aminoimidazo[1,5-a]pyrido[3,4-e]pyrazin-8-yl)((2S,6R)-9-(trifluoromethyl)-3,4-dihydro-2H-2,6-methanobenzo[b][1,5]oxazocin-5(6H)-yl)methanone] | 0.925 | 137 | 0.16
13 | Nc1nc2ccc(C(=O)N3CCC[C@@H]4Oc5cc(C(F)(F)F)ccc5[C@@H]43)cc2n2cncc12 [Ff-111, (4-aminoimidazo[1,5-a]quinoxalin-8-yl)((4aS,9bS)-7-(trifluoromethyl)-3,4,4a,9b-tetrahydrobenzofuro[3,2-b]pyridin-1(2H)-yl)methanone] | 1.1 | 153 | 0.35
14 | Nc1nc2cnc(C(=O)N3CCC[C@@H]4Oc5c(ccc(C(F)(F)F)c5F)[C@@H]43)cc2n2cncc12 [Ff-109, (4-aminoimidazo[1,5-a]pyrido[3,4-e]pyrazin-8-yl)((4aS,9bS)-6-fluoro-7-(trifluoromethyl)-3,4,4a,9b-tetrahydrobenzofuro[3,2-b]pyridin-1(2H)-yl)methanone] | 1.38 | 122 | 0.14
15 | Cc1ncn2c1c(N)nc1cnc(C(=O)N3CCC[C@@H]4Oc5cc(C(F)(F)F)ccc5[C@@H]43)cc12 [Ff-499, (4-amino-3-methylimidazo[1,5-a]pyrido[3,4-e]pyrazin-8-yl)((4aS,9bS)-7-(trifluoromethyl)-3,4,4a,9b-tetrahydrobenzofuro[3,2-b]pyridin-1(2H)-yl)methanone] | 0.897 | 178 | 0.25
16 | Nc1nc2cc(F)c(C(=O)N3CCO[C@@H]4Cc5cc(C(F)(F)F)ccc5[C@@H]43)cc2n2cncc12 (single isomer, unassigned) [Ff-82] | 2.07 | 88 | 0.26
17 | Nc1nc2cnc(C(=O)N3CCC[C@@H]4Oc5cc(OC(F)(F)F)ccc5[C@@H]43)cc2n2cncc12 [Ff-341, (4-aminoimidazo[1,5-a]pyrido[3,4-e]pyrazin-8-yl)((4aS,9bS)-7-(trifluoromethoxy)-3,4,4a,9b-tetrahydrobenzofuro[3,2-b]pyridin-1(2H)-yl)methanone] | 0.71 | 103 | 0.22
18 | C[C@@H]1CN(C(=O)c2cc3c(cc2F)nc(N)c2cncn23)[C@H]2c3ccc(OC(F)(F)F)cc3C[C@H]2O1 (single isomer, unassigned) [Ff-183] | 0.853 | 103 | 0.18
